Experimental data from US5262417A, “Antibacterial quinolone compounds” (The Upjohn Company, priority 1991, dated 1993).
≈ marks a conversion by molar mass, not a printed value. Read-outs that look alike come from different tables or passages of the source. Values belong to the compound of their own block, whether it stands above or below them.

How the values were obtained:
Assay in all cases: Minimum inhibitory concentration (MIC) by agar dilution
Format in all cases: cell-based
Enterobacter cloacae = tested on: Enterobacter cloacae
Procedure: (§1) Briefly, MIC values are determined in unsupplemented Mueller Hinton Agar (MHA). The compounds tested are diluted serially into molten MHA at 47° C. The agar is poured into petri dishes and allowed to harden. The various bacteria used for testing are grown overnight on MHA at 35° C. and transferred to Trypticase soy broth (TSB) until a turbidity of 0.5 McFarland standard is obtained. The bacteria are diluted one to 20 in TSB and inoculated on the plates (1 μl using a Steers replicator).
as §1, with “Compounds of this invention can also be tested for in vitro antimicrobial activity using standard testing procedures such as the determination of minimum inhibitory concentration (MIC) by agar dilution as described in "Methods for Dilution Antimicrobial Susceptibility Tests for Bacteria That Grow Aerobically" (MFT) published Jan. […] Briefly,” for “Briefly,”, “(1μl” for “(1 μl”

Klebsiella pneumoniae = tested on: Klebsiella pneumoniae
Procedure: as §1, with “The antibacterial activity of the compounds of Formula IC was determined by using standard testing procedures such as the determination of minimum inhibitory concentration (MIC) by agar dilution as described in "Methods for Dilution Antimicrobial Susceptibility Tests for Bacteria That Grow Aerobically" (MFT) published January 1983 by the National Committee for Clinical Laboratory Standards, 771 East Lancaster Avenue, Villanova, Pa. 19084, USA. Briefly,” for “Briefly,”
(§2) Compounds of this invention can also be tested for in vitro antimicrobial activity using standard testing procedures such as the determination of minimum inhibitory concentration (MIC) by agar dilution as described in "Methods for Dilution Antimicrobial Susceptibility Tests for Bacteria That Grow Aerobically" (MFT) published Jan. 1983 by the National Committee for Clinical Laboratory Standards, 771 East Lancaster Avenue, Villanova, Penna. 19084, USA. Briefly, MIC values are determined in unsupplemented Mueller Hinton Agar (MHA). The compounds tested are diluted serially into molten MHA at 47° C. The agar is poured into petri dishes and allowed to harden. The various bacteria used for testing are grown overnight on MHA at 35° C. and transferred to Trypticase soy broth (TSB) until a turbidity of 0.5 McFarland standard is obtained. The bacteria are diluted one to 20 in TSB and inoculated on the plates (1μl using a Steers replicator). […] The MIC test results of selected of Formula B compounds of this invention are found in Tables B2-B9.

Streptococcus pyogenes = settings: Streptococcus pyogenes
Procedure: (§3) The antibacterial activity of the compounds of Formula IC was determined by using standard testing procedures such as the determination of minimum inhibitory concentration (MIC) by agar dilution as described in "Methods for Dilution Antimicrobial Susceptibility Tests for Bacteria That Grow Aerobically" (MFT) published January 1983 by the National Committee for Clinical Laboratory Standards, 771 East Lancaster Avenue, Villanova, Pa. 19084, USA. Briefly, MIC values are determined in unsupplemented Mueller Hinton Agar (MHA). The compounds tested are diluted serially into molten MHA at 47° C. The agar is poured into petri dishes and allowed to harden. The various bacteria used for testing are grown overnight on MHA at 35° C. and transferred to Trypticase soy broth (TSB) until a turbidity of 0.5 McFarland standard is obtained. The bacteria are diluted one to 20 in TSB and inoculated on the plates (1 μl using a Steers replicator).
as §2

[1] = tested on: Acinetobacter calcoaceticus; settings: Acinetobacter calcoaceticus
Procedure: as §3, §2

[2] = tested on: Staphylococcus epidermidis; settings: 20 h
Procedure: as §3, §2

Pseudomonas aeruginosa = settings: Pseudomonas aeruginosa
Procedure: as §3, §2

Streptococcus pneumoniae = settings: Streptococcus pneumoniae
Procedure: as §3, §2

Serratia marcescens = settings: 20 h
Procedure: as §3, §2

Citerobacter freundii = tested on: Citerobacter freundii
Procedure: as §3, §2

Staphylococcus aureus = settings: Staphylococcus aureus
Procedure: as §3, §2

Proteus penneri = settings: Proteus penneri
Procedure: as §3, §2

Streptococcus faecalis = settings: Enterococcus faecalis
Procedure: as §3, §2

Escherichia coli = settings: Escherichia coli
Procedure: as §3, §2

[3] = 20 h, read-out: MINIMUM INHIBITORY CONCENTRATION
[4] = 20 h, read-out: MINIMUM INHIBITORY CONCENTRATION, Cult No. 152, MHA
[5] = 20 h, read-out: MINIMUM INHIBITORY CONCENTRATION, Cult No. 12170, MHA
[6] = read-out: MINIMUM INHIBITORY CONCENTRATION
[7] = 20 h, read-out: MINIMUM INHIBITORY CONCENTRATION, Cult No. 6676, MHA
[8] = 20 h, read-out: MINIMUM INHIBITORY CONCENTRATION, Cult No. 9191, MHA
[9] = 20 h, read-out: MINIMUM INHIBITORY CONCENTRATION, Cult No. 12120, MHA
[10] = 20 h, read-out: MINIMUM INHIBITORY CONCENTRATION, Cult No. 41, MHA
[11] = 20 h, read-out: MINIMUM INHIBITORY CONCENTRATION, Cult No. 6685, MHA
[12] = 20 h, read-out: MINIMUM INHIBITORY CONCENTRATION, Cult No. 9213, MHA
[13] = 20 h, read-out: MINIMUM INHIBITORY CONCENTRATION, Cult No. 9218, MHA
[14] = 20 h, read-out: MINIMUM INHIBITORY CONCENTRATION, Cult No. 9271, MHA
[15] = 20 h, read-out: MINIMUM INHIBITORY CONCENTRATION, Cult No. 9679, MHA
[16] = 20 h, read-out: MINIMUM INHIBITORY CONCENTRATION, Cult No. 6674, MHA
[17] = 20 h, read-out: MINIMUM INHIBITORY CONCENTRATION, Cult No. 9451, MHA
[18] = 20 h, read-out: MINIMUM INHIBITORY CONCENTRATION, Cult No. 9855, MHA
[19] = 20 h, read-out: MINIMUM INHIBITORY CONCENTRATION, Cult No. 9952, MHA

SMILES: NC1CCN(c2nc3c(cc2F)c(=O)c(C(=O)O)cn3C23CC(C2)C3)C1 (racemic) [No. 36, 7-(3-amino-1-pyrrolidinyl)-1-(bicyclo[1.1.1]pent-1-yl)-1,4-dihydro-6-fluoro-4-oxo-1,8-naphthyridine-3-carboxylic acid]
- MIC (Enterobacter cloacae; [3]): 0.03 µg/mL (≈ 0.0837 µM)
- MIC (Klebsiella pneumoniae; [3]): 0.06 µg/mL (≈ 0.167 µM)
- MIC (Streptococcus pyogenes; [4]): 0.25 µg/mL (≈ 0.698 µM)
- MIC [1, 5]: 0.125 µg/mL (≈ 0.349 µM)
- MIC [2, 6]: 0.06 µg/mL (≈ 0.167 µM)
- MIC (Pseudomonas aeruginosa; [7]): 1 µg/mL (≈ 2.79 µM)
- MIC (Pseudomonas aeruginosa; [8]): 0.5 µg/mL (≈ 1.4 µM)
- MIC (Pseudomonas aeruginosa; [9]): 0.25 µg/mL (≈ 0.698 µM)
- MIC (Streptococcus pneumoniae; [10]): 0.5 µg/mL (≈ 1.4 µM)
- MIC (Serratia marcescens; [6]): 0.125 µg/mL (≈ 0.349 µM)
- MIC (Citerobacter freundii; [3]): 0.03 µg/mL (≈ 0.0837 µM)
- MIC (Staphylococcus aureus; [11]): 0.125 µg/mL (≈ 0.349 µM)
- MIC (Staphylococcus aureus; [12]): 0.125 µg/mL (≈ 0.349 µM)
- MIC (Staphylococcus aureus; [13]): 0.125 µg/mL (≈ 0.349 µM)
- MIC (Staphylococcus aureus; [14]): 0.125 µg/mL (≈ 0.349 µM)
- MIC (Proteus penneri; [15]): 0.25 µg/mL (≈ 0.698 µM)
- MIC (Streptococcus faecalis; [3]): 0.5 µg/mL (≈ 1.4 µM)
- MIC (Escherichia coli; [16]): 0.03 µg/mL (≈ 0.0837 µM)
- MIC (Escherichia coli; [17]): 0.03 µg/mL (≈ 0.0837 µM)
- MIC (Escherichia coli; [18]): 0.06 µg/mL (≈ 0.167 µM)
- MIC (Escherichia coli; [19]): 0.03 µg/mL (≈ 0.0837 µM)

- MIC (Enterobacter cloacae; UC9382, 20 h, E. cloacae UC 9382, Table CI, read-out: Minimum Inhibitory Concentration): 0.25 µg/mL (≈ 0.666 µM)
- MIC (Klebsiella pneumoniae; UC12081, 20 h, K. pneumoniae UC 12081, Table CI, read-out: Minimum Inhibitory Concentration): 0.25 µg/mL (≈ 0.666 µM)
- MIC (Streptococcus pyogenes; UC152, 20 h, S. pyogenes UC 152, Table CI, read-out: Minimum Inhibitory Concentration): 1 µg/mL (≈ 2.66 µM)
- MIC ([1]; UC12170, 20 h, A. calcoaceticus UC 12170, Table CI, read-out: Minimum Inhibitory Concentration): 0.5 µg/mL (≈ 1.33 µM)
- MIC ([2]; S. epidermidis 30031, Table CI, read-out: Minimum Inhibitory Concentration): 0.25 µg/mL (≈ 0.666 µM)
- MIC (Pseudomonas aeruginosa; UC6676, 20 h, Ps. aeruginosa UC 6676, Table CI, read-out: Minimum Inhibitory Concentration): 2 µg/mL (≈ 5.33 µM)
- MIC (Pseudomonas aeruginosa; UC9191, 20 h, Ps. aeruginosa UC 9191, Table CI, read-out: Minimum Inhibitory Concentration): 2 µg/mL (≈ 5.33 µM)
- MIC (Pseudomonas aeruginosa; UC12120, 20 h, Ps. aeruginosa UC 12120, Table CI, read-out: Minimum Inhibitory Concentration): 1 µg/mL (≈ 2.66 µM)
- MIC (Streptococcus pneumoniae; UC41, 20 h, S. pneumoniae UC 41, Table CI, read-out: Minimum Inhibitory Concentration): 2 µg/mL (≈ 5.33 µM)
- MIC (Serratia marcescens; S. marcescens, UC number not given, Table CI, read-out: Minimum Inhibitory Concentration): 1 µg/mL (≈ 2.66 µM)
- MIC (Citerobacter freundii; Citrobacter freundii, UC3507, 20 h, C. freundii UC 3507, Table CI, read-out: Minimum Inhibitory Concentration): 0.125 µg/mL (≈ 0.333 µM)
- MIC (Staphylococcus aureus; UC6685, 20 h, S. aureus UC 6685, Table CI, read-out: Minimum Inhibitory Concentration): 0.25 µg/mL (≈ 0.666 µM)
- MIC (Staphylococcus aureus; UC9213, 20 h, S. aureus UC 9213, Table CI, read-out: Minimum Inhibitory Concentration): 0.5 µg/mL (≈ 1.33 µM)
- MIC (Staphylococcus aureus; UC9218, 20 h, S. aureus UC 9218, Table CI, read-out: Minimum Inhibitory Concentration): 0.5 µg/mL (≈ 1.33 µM)
- MIC (Staphylococcus aureus; UC9271, 20 h, S. aureus UC 9271, Table CI, read-out: Minimum Inhibitory Concentration): 0.5 µg/mL (≈ 1.33 µM)
- MIC (Proteus penneri; UC9679, 20 h, P. penneri UC 9679, Table CI, read-out: Minimum Inhibitory Concentration): 1 µg/mL (≈ 2.66 µM)
- MIC (Streptococcus faecalis; UC9217, 20 h, S. faecalis UC 9217, Table CI, read-out: Minimum Inhibitory Concentration): 2 µg/mL (≈ 5.33 µM)
- MIC (Escherichia coli; UC6674, 20 h, E. coli UC 6674, Table CI, read-out: Minimum Inhibitory Concentration): 0.125 µg/mL (≈ 0.333 µM)
- MIC (Escherichia coli; UC9451, 20 h, E. coli UC 9451, Table CI, read-out: Minimum Inhibitory Concentration): 0.125 µg/mL (≈ 0.333 µM)
- MIC (Escherichia coli; UC9855, 20 h, E. coli UC 9855, Table CI, read-out: Minimum Inhibitory Concentration): 0.25 µg/mL (≈ 0.666 µM)
- MIC (Escherichia coli; UC9952, 20 h, E. coli UC 9952, Table CI, read-out: Minimum Inhibitory Concentration): 0.125 µg/mL (≈ 0.333 µM)
SMILES: C#CC(C)(C)n1cc(C(=O)O)c(=O)c2cc(F)c(N3CCC(N)C3)c(F)c21 (racemic) [B]

SMILES: O=C(O)c1cn(C23CC(C2)C3)c2c(F)c(N3CCNCC3)c(F)cc2c1=O [No. 1, 1-(bicyclo[1.1.1]pent-1-yl)-6,8-difluoro-1,4-dihydro-4-oxo-7-(1-piperazinyl)-3-quinolinecarboxylic acid]
- MIC (Enterobacter cloacae; [3]): 0.06 µg/mL (≈ 0.16 µM)
- MIC (Klebsiella pneumoniae; [3]): 0.125 µg/mL (≈ 0.333 µM)
- MIC (Streptococcus pyogenes; [4]): 2 µg/mL (≈ 5.33 µM)
- MIC [1, 5]: 0.25 µg/mL (≈ 0.666 µM)
- MIC [2, 6]: 0.25 µg/mL (≈ 0.666 µM)
- MIC (Pseudomonas aeruginosa; [7]): 2 µg/mL (≈ 5.33 µM)
- MIC (Pseudomonas aeruginosa; [8]): 1 µg/mL (≈ 2.66 µM)
- MIC (Pseudomonas aeruginosa; [9]): 1 µg/mL (≈ 2.66 µM)
- MIC (Streptococcus pneumoniae; [10]): 2 µg/mL (≈ 5.33 µM)
- MIC (Serratia marcescens; [6]): 0.25 µg/mL (≈ 0.666 µM)
- MIC (Citerobacter freundii; [3]): 0.06 µg/mL (≈ 0.16 µM)
- MIC (Staphylococcus aureus; 20 h, read-out: MINIMUM INHIBITORY CONCENTRATION, Cult No. 3665, MHA): 0.5 µg/mL (≈ 1.33 µM)
- MIC (Staphylococcus aureus; [11]): 0.5 µg/mL (≈ 1.33 µM)
- MIC (Staphylococcus aureus; [12]): 1 µg/mL (≈ 2.66 µM)
- MIC (Staphylococcus aureus; [13]): 0.5 µg/mL (≈ 1.33 µM)
- MIC (Staphylococcus aureus; [14]): 0.5 µg/mL (≈ 1.33 µM)
- MIC (Proteus penneri; [15]): 0.5 µg/mL (≈ 1.33 µM)
- MIC (Streptococcus faecalis; [3]): 2 µg/mL (≈ 5.33 µM)
- MIC (Escherichia coli; [16]): 0.06 µg/mL (≈ 0.16 µM)
- MIC (Escherichia coli; [17]): 0.06 µg/mL (≈ 0.16 µM)
- MIC (Escherichia coli; [18]): 0.06 µg/mL (≈ 0.16 µM)
- MIC (Escherichia coli; [19]): 0.06 µg/mL (≈ 0.16 µM)
